Test results published in ChEMBL document CHEMBL3351888, “Synthesis and Pharmacological Evaluation of DHβE Analogues as Neuronal Nicotinic Acetylcholine Receptor Antagonists” (ACS Med Chem Lett, 2014).

Assays:
[1] = biological target: T1, Neuronal acetylcholine receptor; alpha4/beta2 (Rattus norvegicus, UniProt P09483+P12390); assay: Displacement of [3H]epibatidine from rat alpha4beta2 nAChR transfected in HEK293 cells after 4 hrs by scintillation count analysis; format: cell-based
[2] = biological target: Neuronal acetylcholine receptor; alpha4/beta4 (Rattus norvegicus, UniProt P09483+P12392); assay: Displacement of [3H]epibatidine from rat alpha4beta4 nAChR transfected in HEK293 cells after 4 hrs by scintillation count analysis; format: cell-based
Neuronal acetylcholine receptor; alpha4/beta4, sequence (P09483 whole entry): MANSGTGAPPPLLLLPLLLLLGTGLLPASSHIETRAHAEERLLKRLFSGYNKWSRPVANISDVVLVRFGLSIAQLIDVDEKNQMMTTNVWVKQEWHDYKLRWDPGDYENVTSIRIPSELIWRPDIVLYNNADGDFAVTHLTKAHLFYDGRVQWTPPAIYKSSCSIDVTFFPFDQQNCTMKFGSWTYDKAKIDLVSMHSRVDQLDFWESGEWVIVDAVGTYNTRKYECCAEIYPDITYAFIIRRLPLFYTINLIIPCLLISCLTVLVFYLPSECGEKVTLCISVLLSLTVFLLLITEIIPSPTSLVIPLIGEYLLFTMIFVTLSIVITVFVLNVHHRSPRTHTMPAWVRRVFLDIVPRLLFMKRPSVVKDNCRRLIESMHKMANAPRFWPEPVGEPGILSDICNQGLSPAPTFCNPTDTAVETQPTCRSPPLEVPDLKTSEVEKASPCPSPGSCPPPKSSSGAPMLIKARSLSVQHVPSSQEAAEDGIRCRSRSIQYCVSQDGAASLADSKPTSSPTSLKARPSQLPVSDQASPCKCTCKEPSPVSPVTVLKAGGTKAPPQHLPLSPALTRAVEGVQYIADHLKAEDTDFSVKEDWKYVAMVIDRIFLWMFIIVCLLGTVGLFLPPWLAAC
Neuronal acetylcholine receptor; alpha4/beta4, sequence (P12392 whole entry): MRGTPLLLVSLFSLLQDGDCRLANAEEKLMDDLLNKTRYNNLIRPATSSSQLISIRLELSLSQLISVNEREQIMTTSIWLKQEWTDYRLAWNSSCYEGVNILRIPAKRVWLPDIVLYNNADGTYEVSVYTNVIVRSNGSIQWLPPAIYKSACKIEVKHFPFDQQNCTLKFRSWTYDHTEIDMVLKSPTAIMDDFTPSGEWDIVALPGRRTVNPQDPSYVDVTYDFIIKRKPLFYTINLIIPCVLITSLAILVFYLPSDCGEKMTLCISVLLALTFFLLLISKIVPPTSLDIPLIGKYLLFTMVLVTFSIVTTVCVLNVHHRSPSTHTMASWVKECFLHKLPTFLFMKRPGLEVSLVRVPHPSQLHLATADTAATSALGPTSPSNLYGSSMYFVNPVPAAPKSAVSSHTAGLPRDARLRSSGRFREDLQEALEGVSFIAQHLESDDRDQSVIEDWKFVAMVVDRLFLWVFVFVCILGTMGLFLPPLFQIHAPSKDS

[3] = biological target: T2, Neuronal acetylcholine receptor; alpha3/beta4 (Rattus norvegicus, UniProt P04757+P12392); assay: Displacement of [3H]epibatidine from rat alpha3beta4 nAChR transfected in HEK293 cells after 4 hrs by scintillation count analysis; format: cell-based
T2 sequence (P04757 whole entry): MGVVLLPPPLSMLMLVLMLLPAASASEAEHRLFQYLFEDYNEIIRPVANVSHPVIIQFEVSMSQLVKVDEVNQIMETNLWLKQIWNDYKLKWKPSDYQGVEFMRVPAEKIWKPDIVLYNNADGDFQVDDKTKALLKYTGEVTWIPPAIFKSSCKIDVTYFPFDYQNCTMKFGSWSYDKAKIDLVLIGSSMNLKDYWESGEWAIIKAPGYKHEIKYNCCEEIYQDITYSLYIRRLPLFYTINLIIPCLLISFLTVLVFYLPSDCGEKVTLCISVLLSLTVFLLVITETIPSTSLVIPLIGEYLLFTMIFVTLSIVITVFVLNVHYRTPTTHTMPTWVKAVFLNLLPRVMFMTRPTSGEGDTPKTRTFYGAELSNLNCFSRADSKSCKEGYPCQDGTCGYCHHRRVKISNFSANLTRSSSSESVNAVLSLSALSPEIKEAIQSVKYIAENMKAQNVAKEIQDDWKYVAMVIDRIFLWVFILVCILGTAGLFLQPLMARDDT
T2 sequence (P12392 whole entry): as the sequence (P12392 whole entry) above

[4] = biological target: Nicotinic acetylcholine receptor alpha-4/beta-2 (Mus musculus, UniProt Q8R493+Q9ERK7); assay: Antagonist activity at mouse alpha4beta2 nAChR transfected in HEK293 cells by FLIPR membrane potential blue (FMP) assay; format: cell-based
Nicotinic acetylcholine receptor alpha-4/beta-2, sequence (Q9ERK7 whole entry): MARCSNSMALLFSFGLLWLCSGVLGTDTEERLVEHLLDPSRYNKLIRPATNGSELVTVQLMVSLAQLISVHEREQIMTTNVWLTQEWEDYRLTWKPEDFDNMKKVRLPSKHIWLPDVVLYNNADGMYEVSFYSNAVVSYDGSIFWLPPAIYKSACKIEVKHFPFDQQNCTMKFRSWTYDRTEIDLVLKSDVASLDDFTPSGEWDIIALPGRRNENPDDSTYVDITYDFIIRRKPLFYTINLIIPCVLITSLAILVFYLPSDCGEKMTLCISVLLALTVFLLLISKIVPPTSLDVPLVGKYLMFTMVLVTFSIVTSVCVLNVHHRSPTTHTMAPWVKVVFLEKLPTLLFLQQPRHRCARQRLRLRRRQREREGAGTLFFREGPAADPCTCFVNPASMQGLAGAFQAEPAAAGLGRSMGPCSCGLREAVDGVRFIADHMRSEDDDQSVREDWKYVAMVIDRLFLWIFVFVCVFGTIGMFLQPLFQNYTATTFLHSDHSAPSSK
Nicotinic acetylcholine receptor alpha-4/beta-2, sequence (Q8R493 whole entry): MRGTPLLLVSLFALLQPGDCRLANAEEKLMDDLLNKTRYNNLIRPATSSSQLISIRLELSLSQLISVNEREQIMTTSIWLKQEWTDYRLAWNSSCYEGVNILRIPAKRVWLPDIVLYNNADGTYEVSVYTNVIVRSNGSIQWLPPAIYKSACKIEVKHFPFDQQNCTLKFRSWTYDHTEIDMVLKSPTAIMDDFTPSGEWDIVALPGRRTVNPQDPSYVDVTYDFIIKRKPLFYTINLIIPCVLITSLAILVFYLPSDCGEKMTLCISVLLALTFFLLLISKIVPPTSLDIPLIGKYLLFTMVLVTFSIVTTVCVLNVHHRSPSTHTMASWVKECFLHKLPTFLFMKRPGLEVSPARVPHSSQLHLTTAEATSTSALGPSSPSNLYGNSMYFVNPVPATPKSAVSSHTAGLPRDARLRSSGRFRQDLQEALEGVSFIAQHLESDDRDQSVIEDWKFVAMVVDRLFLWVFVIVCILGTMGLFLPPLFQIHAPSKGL

[5] = biological target: T2, Neuronal acetylcholine receptor; alpha3/beta4; assay: Antagonist activity at rat alpha3beta4 nAChR transfected in HEK293 cells by FLIPR membrane potential blue (FMP) assay; format: cell-based
[6] = biological target: T1, Neuronal acetylcholine receptor; alpha4/beta2; assay: Inhibition of rat membrane alpha4beta2 nAChR by [3H]cytisine binding assay

T1 sequence (P09483 whole entry): as the sequence (P09483 whole entry) above
T1 sequence (P12390 whole entry): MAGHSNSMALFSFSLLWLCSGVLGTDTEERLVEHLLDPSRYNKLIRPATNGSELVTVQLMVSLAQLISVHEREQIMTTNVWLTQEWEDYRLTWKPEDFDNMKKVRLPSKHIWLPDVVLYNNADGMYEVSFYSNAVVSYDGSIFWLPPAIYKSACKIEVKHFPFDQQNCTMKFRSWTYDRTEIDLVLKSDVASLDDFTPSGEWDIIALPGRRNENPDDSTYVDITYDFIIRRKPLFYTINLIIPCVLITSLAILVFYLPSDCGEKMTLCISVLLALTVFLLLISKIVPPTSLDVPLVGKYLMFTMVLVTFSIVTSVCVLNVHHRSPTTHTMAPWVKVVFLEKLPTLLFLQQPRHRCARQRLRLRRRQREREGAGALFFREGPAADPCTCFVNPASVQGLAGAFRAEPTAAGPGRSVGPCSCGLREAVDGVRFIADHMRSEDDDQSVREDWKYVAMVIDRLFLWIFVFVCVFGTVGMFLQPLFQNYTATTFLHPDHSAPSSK

For `CCO[C@H]1CC[C@H]2CCN(C)[C@H]2C1` (racemic), the Ki [1] was 300 µM, the Ki [2] was over 300 µM and the Ki [3] was 300 µM. It also gave an IC50 [4] of over 300 µM and an IC50 [5] of over 300 µM.

`CO[C@H]1CC=C2CCN(C)[C@H]2C1` (racemic) gave a Ki [1] of 3.4 µM, a Ki [2] of 100 µM and a Ki [3] of 100 µM. The IC50 [4] was 30 µM and the IC50 [5] was over 300 µM.

With `CN1CC[C@@H]2CC[C@H](OCc3ccccc3)C[C@@H]21` (racemic) the Ki [1] was 100 µM, the Ki [2] was 300 µM and the Ki [3] was 100 µM. For the same compound, the IC50 [4] was over 300 µM and the IC50 [5] was over 300 µM.

For `CN1CC[C@@H]2CC[C@H](O)C[C@@H]21` (racemic), the Ki [1] was over 300 µM, the Ki [2] was over 300 µM and the Ki [3] was over 300 µM. It also gave an IC50 [4] of over 300 µM and an IC50 [5] of over 300 µM.

Compound `CN1CCC2=CC[C@H](OCc3ccccc3)C[C@@H]21` (racemic) has a Ki [1] of 300 µM, a Ki [2] of 300 µM and a Ki [3] of 300 µM. It also gave an IC50 [4] of over 300 µM and an IC50 [5] of over 300 µM.

With `CO[C@H]1CC[C@H]2CCN(C)[C@H]2C1` (racemic) the Ki [1] was 300 µM, the Ki [2] was over 300 µM and the Ki [3] was over 300 µM. For the same compound, the IC50 [4] was over 300 µM and the IC50 [5] was over 300 µM.

In the case of `CO[C@H]1CC=C2CCN3CCC4=C(CC(=O)OC4)[C@]23C1`, the Ki [6] is reported as 0.14 µM, the Ki [1] is reported as 0.82 µM and the Ki [2] is reported as 100 µM. It also gave a Ki [3] of 100 µM and an IC50 [4] of 1.2 µM.

With `COCCO[C@H]1CC[C@H]2CCN(C)[C@H]2C1` (racemic) the Ki [1] was 300 µM, the Ki [2] was over 300 µM and the Ki [3] was 300 µM. The IC50 [4] was over 300 µM and the IC50 [5] was over 300 µM.

With `O[C@H]1CC[C@H]2CCN[C@H]2C1` (racemic) the Ki [1] was over 300 µM, the Ki [2] was over 300 µM and the Ki [3] was over 300 µM. The IC50 [4] was over 100 µM and the IC50 [5] was over 300 µM.

In the case of `CN1CCC2=CC[C@H](O)C[C@@H]21` (racemic), the Ki [1] is reported as 300 µM, the Ki [2] is reported as over 300 µM and the Ki [3] is reported as over 300 µM. For the same compound, the IC50 [4] was over 100 µM and the IC50 [5] was over 300 µM.

In the case of `CCO[C@H]1CC=C2CCN(C)[C@H]2C1` (racemic), the Ki [1] is reported as 300 µM, the Ki [2] is reported as over 300 µM and the Ki [3] is reported as over 300 µM. It also gave an IC50 [4] of over 300 µM and an IC50 [5] of over 300 µM.

`CO[C@H]1C=CC2=CCN3CCC4=C(CC(=O)OC4)[C@]23C1` showed a Ki [6] of 1.1 µM.

With `CO[C@H]1C=CC2=CCN(C)[C@H]2C1` (racemic) the Ki [1] was 30 µM, the Ki [2] was over 300 µM and the Ki [3] was over 300 µM. It also gave an IC50 [4] of 100 µM and an IC50 [5] of over 300 µM.

Compound `COCCO[C@H]1CC=C2CCN(C)[C@H]2C1` (racemic) has a Ki [1] of over 300 µM, a Ki [2] of over 300 µM and a Ki [3] of over 300 µM. For the same compound, the IC50 [4] was over 300 µM and the IC50 [5] was over 300 µM.

`O[C@H]1CC=C2CCN[C@H]2C1` (racemic) was tested, and the Ki [1] was over 300 µM, the Ki [2] was over 300 µM and the Ki [3] was over 300 µM. For the same compound, the IC50 [4] was over 300 µM and the IC50 [5] was over 300 µM.

`CO[C@H]1CC[C@H]2CCN3CCC4=C(CC(=O)OC4)[C@]23C1` showed a Ki [6] of 7.4 µM.

Compound `CO[C@H]1CC=C2CCN[C@H]2C1` (racemic) has a Ki [1] of 300 µM, a Ki [2] of over 300 µM and a Ki [3] of over 300 µM. For the same compound, the IC50 [4] was 100 µM and the IC50 [5] was over 300 µM.
